Measured values published in ChEMBL document CHEMBL1201862, “PubChem BioAssay data set” (2004).
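Five compound concentrations were applied to cells in 96-well plates for 48 hours; endpoints were derived by simple linear interpolation of the resulting dose-response curve. GI50: concentration for 50% inhibition of growth.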 Calls of active or inactive are those of the source. Cut-off read from the data, not from the text of the source: active = GI50 up to about 1.1 µM and inactive = higher.

Key:
Assay in all cases: NCI anticancer screen, dose series, 48 h
[1] = test system: CCRF-CEM
[2] = test system: K562
[3] = test system: SF-295
[4] = test system: KM12
[5] = test system: DMS-114
[6] = test system: UO-31
[7] = test system: HOP-62
[8] = test system: IGROV-1
[9] = test system: U-251
[10] = test system: NCI-H460
[11] = test system: COLO 205
[12] = test system: KM-20L2
[13] = test system: Malme-3M
[14] = test system: SF-268
[15] = test system: XF498
[16] = test system: HOP-18
[17] = test system: SK-MEL-5
[18] = test system: SN12C
[19] = test system: OVCAR-4
[20] = test system: SK-MEL-2
[21] = test system: SK-MEL-28
[22] = test system: UACC-62
[23] = test system: EKVX
[24] = test system: RXF 393
[25] = test system: HCT-15
[26] = test system: OVCAR-8
[27] = test system: MCF7
[28] = test system: SW-620
[29] = test system: HL-60
[30] = test system: A549
[31] = test system: HOP-92
[32] = test system: NCI-H23
[33] = test system: OVCAR-5
[34] = test system: SNB-75
[35] = test system: CAKI-1
[36] = test system: HCC 2998
[37] = test system: DLD-1
[38] = test system: OVCAR-3
[39] = test system: SK-OV-3
[40] = test system: MOLT-4
[41] = test system: M19-MEL
[42] = test system: NCI-H226
[43] = test system: HCT-116
[44] = test system: LOX IMVI
[45] = test system: SNB-19
[46] = test system: HT-29
[47] = test system: NCI-H522
[48] = test system: RPMI-8226
[49] = test system: DMS-273
[50] = test system: NCI/ADR-RES
[51] = test system: SF-539
[52] = test system: A498
[53] = test system: SNB-78
[54] = test system: UACC-257

CC1=NN(C(=O)c2ccccc2)C(=O)C1/N=N/c1ccccc1C(=O)O (stereo unspecified)
GI50 [1]: 3.81 µM (inactive) | GI50 [2]: 2.54 µM (inactive) | GI50 [3]: 4.1 µM (inactive) | GI50 [4]: 7.8 µM (inactive) | GI50 [5]: 4.08 µM (inactive) | GI50 [6]: 3.75 µM (inactive) | GI50 [7]: 6.15 µM (inactive) | GI50 [8]: 4.14 µM (inactive) | GI50 [9]: 4.79 µM (inactive) | GI50 [10]: 3.67 µM (inactive) | GI50 [11]: > 72.6 µM (inactive) | GI50 [12]: 63.1 µM (inactive) | GI50 [13]: 10.9 µM (inactive) | GI50 [14]: 9.79 µM (inactive) | GI50 [15]: 2.72 µM (inactive) | GI50 [16]: 99.1 µM (inactive) | GI50 [17]: 34 µM (inactive) | GI50 [18]: 7.26 µM (inactive) | GI50 [19]: 5.62 µM (inactive) | GI50 [20]: 6.21 µM (inactive) | GI50 [21]: 89.1 µM (inactive) | GI50 [22]: 3.1 µM (inactive) | GI50 [23]: > 100 µM (inactive) | GI50 [24]: 2.47 µM (inactive) | GI50 [25]: 4.85 µM | GI50 [26]: 7.87 µM (inactive) | GI50 [27]: 3.86 µM (inactive) | GI50 [28]: 16.8 µM (inactive) | GI50 [29]: 3.53 µM (inactive) | GI50 [30]: 3.77 µM (inactive) | GI50 [31]: 4.11 µM (inactive) | GI50 [32]: 3.81 µM (inactive) | GI50 [33]: > 73.1 µM (inactive) | GI50 [34]: 1.8 µM (inactive) | GI50 [35]: 6.53 µM (inactive) | GI50 [36]: 19.8 µM (inactive) | GI50 [37]: 6.89 µM (inactive) | GI50 [38]: 4.71 µM (inactive) | GI50 [39]: > 25.2 µM (inactive) | GI50 [40]: 4.09 µM (inactive) | GI50 [41]: 5.92 µM (inactive) | GI50 [42]: 9.46 µM (inactive) | GI50 [43]: 3.24 µM (inactive) | GI50 [44]: 11.5 µM (inactive) | GI50 [45]: 5.75 µM (inactive) | GI50 [46]: 52.1 µM (inactive) | GI50 [47]: 8.05 µM (inactive) | GI50 [48]: 4.36 µM (inactive) | GI50 [49]: 3.05 µM (inactive) | GI50 [50]: 4.76 µM (inactive) | GI50 [51]: 3.78 µM (inactive) | GI50 [52]: 5.47 µM (inactive)

CNC(=O)OCc1nc(SC)n(C)c1CO
GI50 [1]: > 100 µM (inactive) | GI50 [2]: > 100 µM (inactive) | GI50 [3]: > 100 µM (inactive) | GI50 [4]: > 100 µM (inactive) | GI50 [5]: > 100 µM (inactive) | GI50 [6]: > 100 µM (inactive) | GI50 [7]: > 100 µM (inactive) | GI50 [8]: > 100 µM (inactive) | GI50 [9]: > 100 µM (inactive) | GI50 [10]: > 100 µM (inactive) | GI50 [11]: > 100 µM (inactive) | GI50 [12]: > 100 µM (inactive) | GI50 [13]: 1.68 µM (inactive) | GI50 [14]: > 100 µM (inactive) | GI50 [53]: > 100 µM (inactive) | GI50 [15]: > 100 µM (inactive) | GI50 [16]: > 79.3 µM (inactive) | GI50 [17]: > 100 µM (inactive) | GI50 [18]: > 100 µM (inactive) | GI50 [54]: > 100 µM (inactive) | GI50 [19]: > 100 µM (inactive) | GI50 [20]: > 46.9 µM (inactive) | GI50 [21]: > 100 µM (inactive) | GI50 [22]: > 100 µM (inactive) | GI50 [23]: > 100 µM (inactive) | GI50 [24]: > 100 µM (inactive) | GI50 [25]: > 100 µM | GI50 [26]: > 100 µM (inactive) | GI50 [27]: > 100 µM (inactive) | GI50 [28]: > 100 µM (inactive) | GI50 [29]: > 100 µM (inactive) | GI50 [30]: > 100 µM (inactive) | GI50 [31]: > 100 µM (inactive) | GI50 [32]: > 100 µM (inactive) | GI50 [33]: > 100 µM (inactive) | GI50 [34]: > 100 µM (inactive) | GI50 [35]: > 100 µM (inactive) | GI50 [36]: > 100 µM (inactive) | GI50 [37]: > 100 µM (inactive) | GI50 [38]: > 100 µM (inactive) | GI50 [39]: > 100 µM (inactive) | GI50 [40]: > 100 µM (inactive) | GI50 [41]: > 100 µM (inactive) | GI50 [42]: > 100 µM (inactive) | GI50 [43]: > 100 µM (inactive) | GI50 [44]: > 100 µM (inactive) | GI50 [45]: > 100 µM (inactive) | GI50 [46]: > 100 µM (inactive) | GI50 [47]: > 100 µM (inactive) | GI50 [48]: > 100 µM (inactive) | GI50 [49]: > 100 µM (inactive) | GI50 [50]: > 100 µM (inactive) | GI50 [51]: > 100 µM (inactive) | GI50 [52]: > 100 µM (inactive)
